Legend:
Test in all cases: relative viability (nuclei count vs DMSO), 5 days (fraction); higher = more cells survive
NCI-H1734 = system: NCI-H1734
Method in brief: (§1)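 Relative viability divides the nuclei count in treated wells by that in vehicle wells. Lung cancer cell lines were seeded in 1536-well plates, dosed by pin tool the next day, and fixed and stained after 5 days in one step with final 0.05% Triton X-100, 1% formaldehyde and 1 ug/ml Hoechst. Dosing was a single drug or a fixed anchor-drug dose plus five library-drug doses (not always all listed) in √10 steps, and values are medians of duplicate plates imaged at 4×.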

EKVX = system: EKVX
Method in brief: as §1

ABC-1 = system: ABC-1
Method in brief: as §1

NCI-H1793 = system: NCI-H1793
Method in brief: as §1

NCI-H2347 = system: NCI-H2347
Method in brief: as §1

NCI-H1437 = system: NCI-H1437
Method in brief: as §1

HCC-827 = system: HCC-827
Method in brief: as §1

LXF-289 = system: LXF-289
Method in brief: as §1

NCI-H522 = system: NCI-H522
Method in brief: as §1

HARA = system: HARA
Method in brief: as §1

NCI-H358 = system: NCI-H358
Method in brief: as §1

UMC-11 = system: UMC-11
Method in brief: as §1

HCC-78 = system: HCC-78
Method in brief: as §1

201T = system: 201T
Method in brief: as §1

LU99A = system: LU99A
Method in brief: as §1

NCI-H1648 = system: NCI-H1648
Method in brief: as §1

NCI-H2170 = system: NCI-H2170
Method in brief: as §1

NCI-H1915 = system: NCI-H1915
Method in brief: as §1

LOU-NH91 = system: LOU-NH91
Method in brief: as §1

COR-L 105 = system: COR-L 105
Method in brief: as §1

NCI-H2342 = system: NCI-H2342
Method in brief: as §1

HCC-366 = system: HCC-366
Method in brief: as §1

CAL-12T = system: CAL-12T
Method in brief: as §1

Nc1cccc2c1CN(C1CCC(=O)NC1=O)C2=O (stereo not drawn) [Lenalidomide] + Nc1ncn([C@H]2C[C@H](O)[C@@H](CO)O2)c(=O)n1 [Decitabine] (partner 2 µM)
relative viability (NCI-H1734; first compound 0.253 µM): 0.508
relative viability (NCI-H1734; first compound 0.8 µM): 0.478
relative viability (NCI-H1734; first compound 2.53 µM): 0.568
relative viability (NCI-H1734; first compound 8 µM): 0.485
relative viability (EKVX; first compound 0.253 µM): 0.326
relative viability (EKVX; first compound 0.8 µM): 0.4
relative viability (EKVX; first compound 2.53 µM): 0.336
relative viability (EKVX; first compound 8 µM): 0.331
relative viability (ABC-1; first compound 0.253 µM): 0.929
relative viability (ABC-1; first compound 0.8 µM): 1.05
relative viability (ABC-1; first compound 2.53 µM): 0.827
relative viability (ABC-1; first compound 8 µM): 0.939
relative viability (NCI-H1793; first compound 0.253 µM): 0.464
relative viability (NCI-H1793; first compound 2.53 µM): 0.535
relative viability (NCI-H1793; first compound 8 µM): 0.44
relative viability (NCI-H2347; first compound 0.253 µM): 0.616
relative viability (NCI-H2347; first compound 0.8 µM): 0.617
relative viability (NCI-H2347; first compound 2.53 µM): 0.624
relative viability (NCI-H2347; first compound 8 µM): 0.566
relative viability (NCI-H1437; first compound 0.253 µM): 0.556
relative viability (NCI-H1437; first compound 0.8 µM): 0.5
relative viability (NCI-H1437; first compound 2.53 µM): 0.59
relative viability (NCI-H1437; first compound 8 µM): 0.648
relative viability (HCC-827; first compound 0.253 µM): 0.336
relative viability (HCC-827; first compound 0.8 µM): 0.284
relative viability (HCC-827; first compound 2.53 µM): 0.348
relative viability (HCC-827; first compound 8 µM): 0.35
relative viability (LXF-289; first compound 0.253 µM): 0.388
relative viability (LXF-289; first compound 0.8 µM): 0.351
relative viability (LXF-289; first compound 2.53 µM): 0.393
relative viability (LXF-289; first compound 8 µM): 0.335
relative viability (NCI-H522; first compound 0.253 µM): 0.759
relative viability (NCI-H522; first compound 0.8 µM): 0.76
relative viability (NCI-H522; first compound 2.53 µM): 0.694
relative viability (NCI-H522; first compound 8 µM): 0.626
relative viability (HARA; first compound 0.253 µM): 0.597
relative viability (HARA; first compound 2.53 µM): 0.538
relative viability (HARA; first compound 8 µM): 0.561
relative viability (NCI-H358; first compound 0.8 µM): 0.228
relative viability (NCI-H358; first compound 2.53 µM): 0.232
relative viability (NCI-H358; first compound 8 µM): 0.22
relative viability (UMC-11; first compound 0.253 µM): 0.46
relative viability (UMC-11; first compound 0.8 µM): 0.688
relative viability (UMC-11; first compound 2.53 µM): 0.725
relative viability (UMC-11; first compound 8 µM): 0.621
relative viability (HCC-78; first compound 0.253 µM): 0.731
relative viability (HCC-78; first compound 0.8 µM): 0.637
relative viability (HCC-78; first compound 2.53 µM): 0.703
relative viability (HCC-78; first compound 8 µM): 0.558
relative viability (201T; first compound 0.253 µM): 0.874
relative viability (201T; first compound 0.8 µM): 0.927
relative viability (201T; first compound 2.53 µM): 0.88
relative viability (201T; first compound 8 µM): 0.816
relative viability (LU99A; first compound 0.253 µM): 0.894
relative viability (LU99A; first compound 0.8 µM): 0.823
relative viability (LU99A; first compound 2.53 µM): 0.868
relative viability (LU99A; first compound 8 µM): 0.702
relative viability (NCI-H1648; first compound 0.253 µM): 0.562
relative viability (NCI-H1648; first compound 2.53 µM): 0.557
relative viability (NCI-H1648; first compound 8 µM): 0.411
relative viability (NCI-H2170; first compound 0.253 µM): 0.49
relative viability (NCI-H2170; first compound 0.8 µM): 0.429
relative viability (NCI-H2170; first compound 2.53 µM): 0.469
relative viability (NCI-H2170; first compound 8 µM): 0.471
relative viability (NCI-H1915; first compound 0.253 µM): 0.247
relative viability (NCI-H1915; first compound 0.8 µM): 0.253
relative viability (NCI-H1915; first compound 2.53 µM): 0.274
relative viability (NCI-H1915; first compound 8 µM): 0.241
relative viability (LOU-NH91; first compound 0.253 µM): 0.815
relative viability (LOU-NH91; first compound 0.8 µM): 0.826
relative viability (LOU-NH91; first compound 2.53 µM): 0.831
relative viability (LOU-NH91; first compound 8 µM): 0.765
relative viability (COR-L 105; first compound 0.253 µM): 0.684
relative viability (COR-L 105; first compound 0.8 µM): 0.704
relative viability (COR-L 105; first compound 2.53 µM): 0.763
relative viability (COR-L 105; first compound 8 µM): 0.711
relative viability (NCI-H2342; first compound 0.253 µM): 0.687
relative viability (NCI-H2342; first compound 0.8 µM): 0.678
relative viability (NCI-H2342; first compound 2.53 µM): 0.624
relative viability (NCI-H2342; first compound 8 µM): 0.699
relative viability (HCC-366; first compound 0.253 µM): 0.337
relative viability (HCC-366; first compound 0.8 µM): 0.377
relative viability (HCC-366; first compound 2.53 µM): 0.366
relative viability (HCC-366; first compound 8 µM): 0.354

Nc1cccc2c1CN(C1CCC(=O)NC1=O)C2=O (stereo not drawn) [Lenalidomide] + COc1cccc2cc(-c3nc([C@H]4CC[C@H](C(=O)O)CC4)n4ncnc(N)c34)[nH]c12 [OSI-027] (partner 0.5 µM)
relative viability (NCI-H1734; first compound 0.253 µM): 0.63
relative viability (NCI-H1734; first compound 0.8 µM): 0.712
relative viability (NCI-H1734; first compound 2.53 µM): 0.566
relative viability (NCI-H1734; first compound 8 µM): 0.608
relative viability (EKVX; first compound 0.253 µM): 0.724
relative viability (EKVX; first compound 0.8 µM): 0.734
relative viability (EKVX; first compound 2.53 µM): 0.696
relative viability (EKVX; first compound 8 µM): 0.702
relative viability (ABC-1; first compound 0.253 µM): 0.453
relative viability (ABC-1; first compound 0.8 µM): 0.489
relative viability (ABC-1; first compound 2.53 µM): 0.533
relative viability (ABC-1; first compound 8 µM): 0.481
relative viability (NCI-H1793; first compound 0.253 µM): 0.359
relative viability (NCI-H1793; first compound 2.53 µM): 0.319
relative viability (NCI-H1793; first compound 8 µM): 0.244
relative viability (NCI-H2347; first compound 0.253 µM): 0.44
relative viability (NCI-H2347; first compound 0.8 µM): 0.47
relative viability (NCI-H2347; first compound 2.53 µM): 0.378
relative viability (NCI-H2347; first compound 8 µM): 0.454
relative viability (NCI-H1437; first compound 0.253 µM): 0.888
relative viability (NCI-H1437; first compound 0.8 µM): 1.11
relative viability (NCI-H1437; first compound 2.53 µM): 0.993
relative viability (NCI-H1437; first compound 8 µM): 0.956
relative viability (HCC-827; first compound 0.253 µM): 0.807
relative viability (HCC-827; first compound 0.8 µM): 0.74
relative viability (HCC-827; first compound 2.53 µM): 0.849
relative viability (HCC-827; first compound 8 µM): 0.831
relative viability (LXF-289; first compound 0.253 µM): 0.832
relative viability (LXF-289; first compound 0.8 µM): 0.823
relative viability (LXF-289; first compound 2.53 µM): 0.871
relative viability (LXF-289; first compound 8 µM): 0.772
relative viability (NCI-H522; first compound 0.253 µM): 0.754
relative viability (NCI-H522; first compound 2.53 µM): 0.696
relative viability (NCI-H522; first compound 8 µM): 0.596
relative viability (HARA; first compound 0.253 µM): 0.612
relative viability (HARA; first compound 2.53 µM): 0.564
relative viability (HARA; first compound 8 µM): 0.534
relative viability (NCI-H358; first compound 0.253 µM): 0.717
relative viability (NCI-H358; first compound 0.8 µM): 0.815
relative viability (NCI-H358; first compound 2.53 µM): 0.925
relative viability (NCI-H358; first compound 8 µM): 0.855
relative viability (UMC-11; first compound 0.253 µM): 0.456
relative viability (UMC-11; first compound 0.8 µM): 0.576
relative viability (UMC-11; first compound 2.53 µM): 0.53
relative viability (UMC-11; first compound 8 µM): 0.464
relative viability (HCC-78; first compound 0.253 µM): 0.418
relative viability (HCC-78; first compound 0.8 µM): 0.35
relative viability (HCC-78; first compound 2.53 µM): 0.376
relative viability (HCC-78; first compound 8 µM): 0.382
relative viability (CAL-12T; first compound 0.253 µM): 0.599
relative viability (CAL-12T; first compound 0.8 µM): 0.555
relative viability (CAL-12T; first compound 2.53 µM): 1.01
relative viability (CAL-12T; first compound 8 µM): 0.619
relative viability (201T; first compound 0.253 µM): 0.767
relative viability (201T; first compound 0.8 µM): 0.494
relative viability (201T; first compound 2.53 µM): 0.799
relative viability (201T; first compound 8 µM): 0.791
relative viability (LU99A; first compound 0.253 µM): 0.31
relative viability (LU99A; first compound 0.8 µM): 0.324
relative viability (LU99A; first compound 2.53 µM): 0.292
relative viability (LU99A; first compound 8 µM): 0.285
relative viability (NCI-H1648; first compound 0.253 µM): 0.272
relative viability (NCI-H1648; first compound 0.8 µM): 0.22
relative viability (NCI-H1648; first compound 2.53 µM): 0.253
relative viability (NCI-H1648; first compound 8 µM): 0.227
relative viability (NCI-H2170; first compound 0.253 µM): 0.691
relative viability (NCI-H2170; first compound 0.8 µM): 0.612
relative viability (NCI-H2170; first compound 2.53 µM): 0.817
relative viability (NCI-H2170; first compound 8 µM): 0.588
relative viability (NCI-H1915; first compound 0.253 µM): 0.61
relative viability (NCI-H1915; first compound 0.8 µM): 0.653
relative viability (NCI-H1915; first compound 2.53 µM): 0.646
relative viability (NCI-H1915; first compound 8 µM): 0.615
relative viability (LOU-NH91; first compound 0.253 µM): 0.769
relative viability (LOU-NH91; first compound 0.8 µM): 0.699
relative viability (LOU-NH91; first compound 2.53 µM): 0.703
relative viability (LOU-NH91; first compound 8 µM): 0.664
relative viability (COR-L 105; first compound 0.253 µM): 0.715
relative viability (COR-L 105; first compound 0.8 µM): 0.632
relative viability (COR-L 105; first compound 2.53 µM): 0.697
relative viability (COR-L 105; first compound 8 µM): 0.821
relative viability (NCI-H2342; first compound 0.253 µM): 0.67
relative viability (NCI-H2342; first compound 0.8 µM): 0.572
relative viability (NCI-H2342; first compound 2.53 µM): 0.57
relative viability (NCI-H2342; first compound 8 µM): 0.626
relative viability (HCC-366; first compound 0.253 µM): 1.02
relative viability (HCC-366; first compound 0.8 µM): 0.709
relative viability (HCC-366; first compound 2.53 µM): 1.01
relative viability (HCC-366; first compound 8 µM): 0.747
